# Test results as given in patent US4603209A, “Fluorescent indicator dyes for calcium ions” (priority 1984, dated 1986).
# Like-named read-outs stand apart in the source and are kept apart here.
# What was measured:
# [1] = reference 26; cited from earlier work
# [2] = reference 26; cited from earlier work; remark: listed apart in the source
# [3] = cited from earlier work
# [4] = cited from earlier work; remark: listed apart in the source
# [5] = Ca2+ titration of dye fluorescence in Ca-EGTA buffers; assay type: binding; details: for Kd: read-out: Apparent Kd for Ca^2+
# Description: The excitation bandwidth was 1.9 nm, the emission was collected at 510 nm with 4.6 nm bandwidth, and the spectra were automatically corrected for excitation lamp and monochromator characteristics using a rhodamine B quantum counter. The titration was done starting with 5 ml of 100 mM KCl, 10 mM KMOPS, 10 mM K2 H2 EGTA, 1 microM fura-2, adjusting the pH to 7.20, recording the spectrum, then discarding 0.5 ml of this solution and replacing with 0.5 ml of 100 mM KCl, 10 mM KMOPS, 10 mM K2 CaEGTA, 1 microM fura-2, readjusting the pH to 7.20, and recording the spectrum which was then in 9 mM K2 H2 EGTA and 1 mM K2 CaEGTA. Subsequent iterations to reach n mM CaEGTA, (10-n) mM EGTA, n=2-10, were done by discarding 5.0/(11-n) ml and replacing with equal volumes of the 10 mM K2 CaEGTA -1 microM fura-2 stock. After n=10 had been reached to give a free Ca^2+ between 10^-4 and 10^-5 M, addition of 1 mM CaCl2 had no further effect on the spectrum. Equality of Ca and EGTA contents in the K2 CaEGTA solution was insured by titration of K2 H2 EGTA with CaCl2 to the potentiometric endpoint measured with a Ca^2+ -selective electrode. EGTA was Fluka Chemical "puriss" grade.
# The dye, 6 microM, was titrated in 115 mM KCl, 20 mM NaCl, 10 mM MOPS, 1.115 mM MgCl2, 1.115 mM K2 H2 EGTA, KOH to pH 7.050±0.004, 37° C., to which small aliquots of K2 CaEGTA were added from a micrometer syringe to raise free Ca^2+ to the values labeling each curve, in units of nM unless otherwise specified. Excitation was at 355 nm, and both excitation and emission were set to 5 nm bandwidth. These spectra are not corrected for the emission sensitivity characteristics of the Perkin Elmer MPF-44; in particular the notch at 465 nm is an instrumental artifact. Corrected emission spectra show the low-Ca 485 nm peak to be of very similar amplitude to the high-Ca 404 nm peak when excitation is at 355-356 nm.
# Free [Ca^2+ ] levels were controlled by Ca-EGTA buffers assuming apparent dissociation constants for Ca-EGTA of 380 nM at pH 7.00 in 0.1M KCl, 20° C.; 151 nM at pH 7.20 in 0.1M KCl, 20° C.; 214 nM at pH 7.05 in 130 mM KCl, 20 mM NaCl at 37° C.; and 490 nM at pH 7.02 in 225 mM KCl, 25 mM NaCl at 18° C. The first three apparent dissociation constants were calculated from the tables of Martell & Smith (see reference 11) as discussed in referencess 1 and 12. The last value was freshly determined in this study because no appropriate absolute constants were available at the higher ionic strength, and existing estimates in the biological literature (see references 13-17) vary by an unacceptably large range, >0.5 log unit. For this determination we chose the classic and reliable method of pH titration in the presence and absence of excess metal ion (see references 18). Details are included in the METHODS OF SYNTHESIS section, supra.
# Dissociation constants for the new indicators disclosed herein, as exemplified by chelators stil-1, stil-2, indo-1, fura-1, fura-2 and fura-3 (see Table I, infra), are in the range 100-300 nM at ionic strengths near 0.1 to 0.15. Such values are close to the dissociation constant (110 nM) of the parent compound BAPTA (see reference 6), showing that the substituents that make up the rest of the chromophores are only slightly electron-withdrawing. […] A considerable decrease in Ca^2+ binding strength is observed, to an apparent dissociation constant of 760 nM. Such a strong dependence on ionic strength is not surprising for the reaction of a tetravalent anion with a divalent cation.
# where Kd is the effective dissociation constant. The fluorescence ratio R is the ratio [formula] Solving for [Ca^2+ ] yields the calibration equation: [formula] Note that FA1 /FA2 is simply the limiting value that R can have at zero [Ca^2+ ] and so may be considered Rmin, while FB1 /FB2 is the analogous limiting Rmax that the ratio has at saturating [Ca^2+ ]. […]
# [6] = Zn2+ titration of dye fluorescence in Zn-EGTA buffer, Hill plots; assay type: binding; details: for pKZn / Kd: 120 mM KCl, pH 7.12, room temperature; for Kd: read-out: dissociation constant for zinc
# Description: Heavy metal binding constants were measured as follows. Affinities of stil-1 and fura-2 for Zn^2+ were measured by titrating 1-2 microM dye in 120 mM KCl, 5 mM K2 H2 EGTA, 10 mM MOPS, 5 mM Tris, with 1M ZnCl2 dispensed from a micrometer syringe. […] (see reference 11).
# Binding of fura-2 to some of the physiologically more important heavy divalent metals was also briefly examined. Both stil-1 and fura-2 bind zinc with dissociation constants around 1.6-2 nM (pKZn 8.6-8.8). […] Curiously Zn^2+ shifts the fura-2 spectrum the same way that Ca^2+ does, whereas Zn^2+ quenches quin2 and therefore acts oppositely to Ca^2+. Fura-2 is also better than quin2 in rejecting Mn^2+, the Mn^2+ :Ca^2+ preferences being 42-fold and 510-fold respectively (see reference 26). […] A more precise estimate was prevented by experimental scatter, which may reflect more complicated stoichiometry than 1:1 or imperfectly anaerobic conditions. Both Mn^2+ and Fe^2+ quench fura-2 as expected for metals with many unpaired electrons. For comparison, EGTA prefers Zn^2+, Mn^2+, and Fe^2+ to Ca^2+, by factors of ca. 50, ca. 20, and ca. 8-fold respectively (see reference 11).
# [7] = Direct competition between Mn2+ and Ca2+, quenching of dye fluorescence; assay type: binding; details: 100 mM KCl, 10 mM KMOPS, pH 7.2, room temperature
# Description: (§1) Since Mn^2+ and Fe^2+ quench fura-2, the affinities for these ions relative to Ca^2+ could be assessed by direct competition between the metal ions each in stoichiometric excess. […] Fluorescences of 0.5 microM fura-2 at room temperature were recorded in solutions containing 100 mM KCl, 10 mM KMOPS, pH 7.2. One series also contained 0, 0.1, or 1 mM MnSO4 and 0, 1.1, 2.2, 4.4, or 8.8 mM CaCl2; another series had 2 mM CaCl2 and 0, 0.1, 0.2, 0.5, 1, 2 mM Fe(NH4)2 (SO4)2; and a third series with 0.2 mM Fe(NH4)2 (SO4)2 and 0, 0.2, 0.4, 0.8, 2, 4, and 8 mM CaCl2. Measurements with Fe(II) were made in a cuvet sealed by a septum and continually bubbled with nitrogen; the solutions stayed clear and nearly colorless until the septum was removed after the end of the experiment, whereupon deposition of yellow Fe(OH)3 followed rapidly.
# (§2) Binding of fura-2 to some of the physiologically more important heavy divalent metals was also briefly examined. Both stil-1 and fura-2 bind zinc with dissociation constants around 1.6-2 nM (pKZn 8.6-8.8). […] Curiously Zn^2+ shifts the fura-2 spectrum the same way that Ca^2+ does, whereas Zn^2+ quenches quin2 and therefore acts oppositely to Ca^2+. Fura-2 is also better than quin2 in rejecting Mn^2+, the Mn^2+ :Ca^2+ preferences being 42-fold and 510-fold respectively (see reference 26). […]
# [8] = Direct competition between Fe2+ and Ca2+, quenching of dye fluorescence; assay type: binding; details: 100 mM KCl, 10 mM KMOPS, pH 7.2, under nitrogen
# Description: as §1, §2
# [9] = Mg2+ titration of dye excitation spectrum in Mg-EGTA buffers; assay type: binding; details: 0.1-0.15M ionic strength, read-out: Mg^2+ dissociation constant
# Description: An excitation spectrum was recorded of 2 microM fura-2 in 2.5 ml 32 mM KCl, 1 mM EGTA, 10 mM MOPS, adjusted with KOH to pH 7.18 while thermostatted at 20° C. Then 25 microliters of this solution was discarded and replaced by 25 microliters of a solution containing 2 microM fura-2, 104.8 mM MgCl2, 5.8 mM EGTA, 10 mM MOPS, adjusted with KOH to pH 7.18. Since both stocks had 1 mM free EGTA but the latter had 100 mM free Mg, the 99:1 v/v composite went to 1.0 mM free Mg^2+. Further iterations attained 2, 5, 10, and 20 mM free Mg^2+ by successively discarding 25.25, 76.53, 131.6, and 277.8 microliters of the mixture and replacing each with an equal volume of the high-Mg stock. Emission was collected at 510 nm, 4.6 nm bandpass, and excitation 0.9 nm bandpass.
# Free [Mg^2+ ] was likewise controlled by Mg-EGTA buffers assuming an apparent dissociation constant for Mg-EGTA of 21 mM at pH 7.18 in 130 mM KCl at 20°, 8.96 mM at pH 7.05 in 130 mM KCl, 20 mM NaCl at 37°, and 99 mM at pH 7.02 in 225 mM KCl, 25 mM NaCl at 18°. Again, the last value was freshly determined in this study.
# Binding constants for competing cations were most thoroughly explored for fura-2. […] Therefore fura-2 binds Mg^2+ less strongly than does quin2, whose Mg^2+ dissociation constants are about 1 mM and 2 mM respectively at 37° and ca. 22° (see references 6 and 7). […]
# [10] = 115 mM KCl, 20 mM NaCl, 10 mM KMOPS, pH 7.05, 1 mM free Mg^2+, 37° C.
smiles,measurement,setting,value
COc1cc(N(CC(=O)O)CC(=O)O)c2nc(COc3cc(C)ccc3N(CC(=O)O)CC(=O)O)ccc2c1 [quin-2],Mn^2+:Ca^2+ preference,[1],510 fold
same,Zn^2+:Ca^2+ preference,[2],3.5 orders of magnitude
same,Kd,"[3]; 37°, references 6 and 7, read-out: Mg^2+ dissociation constant",~1000 µM
same,Kd,"[3]; background statement, read-out: dissociation constant for Mg^2+",1000 to 2000 µM
same,Kd,"[3]; ca. 22°, references 6 and 7, read-out: Mg^2+ dissociation constant",~2000 µM
same,Kd,"[4]; 100 mM KCl, 20° C., pH 7.1-7.2, data taken from reference 4, read-out: Apparent Kd for Ca^2+",0.08 µM
"O=C(O)CN(CC(=O)O)c1ccccc1OCCOc1ccccc1N(CC(=O)O)CC(=O)O [BAPTA, 1,2-bis(2-aminophenoxy)ethane N,N,N',N'-tetraacetic acid]",Kd,"[4]; parent compound, reference 6, read-out: dissociation constant (Ca^2+)",0.11 µM
same,Kd,"[4]; reference 6, read-out: Kd (Ca^2+)",0.1 µM
"Cc1ccc(N(CC(=O)O)CC(=O)O)c(OCCOc2cc3cc(-c4ccc(C#N)cc4)oc3cc2N(CC(=O)O)CC(=O)O)c1 [fura-3, 1-(2-(4-cyanophenyl)-6-aminobenzofuran-5-oxy)-2-(2'-amino-5'-methylphenoxy)ethane-N,N,N',N'-tetraacetic acid]",Kd,[5]; [10],0.14 µM
"Cc1ccc(N(CC(=O)O)CC(=O)O)c(OCCOc2cc(-c3cc4ccc(C(=O)O)cc4[nH]3)ccc2N(CC(=O)O)CC(=O)O)c1 [indo-1, 1-(2-amino-5-[6-carboxyindolyl-2]-phenoxy)-2-(2'-amino-5'-methylphenoxy)ethane-N,N,N',N'-tetraacetic acid]",Kd from ratio calibration equation 5,"[5]; FIG. 4 data, emission 400 nm / 490 nm, 115 mM KCl, 20 mM NaCl, pH 7.050, 37° C.",0.25 µM
Cc1ccc(N(CC(=O)O)CC(=O)O)c(OCCOc2cc(/C=C/c3ccc(C(=O)O)cc3)ccc2N(CC(=O)O)CC(=O)O)c1 [stil-1],Kd,"[5]; 100 mM KCl, 20° C., pH 7.1-7.2",0.132 µM
same,Kd,[5]; [10],0.2 µM
same,Zn^2+:Ca^2+ preference,[6],two orders of magnitude
same,pKZn,[6],8.6-8.8
same,Kd,[6],0.0016 to 0.002 µM
"Cc1ccc(N(CC(=O)O)CC(=O)O)c(OCCOc2cc3cc(-c4ccc(C(=O)O)cc4)oc3cc2N(CC(=O)O)CC(=O)O)c1 [fura-1, 1-(2-(4-carboxyphenyl)-6-amino-benzofuran-5-oxy)-2-(2'-amino-5'-methylphenoxy)ethane-N,N,N',N'-tetraacetic acid]",Kd,[5]; [10],0.107 µM
Cc1ccc(N(CC(=O)O)CC(=O)O)c(OCCOc2cc(/C=C/c3ccc(S(=O)(=O)N(C)C)cc3)ccc2N(CC(=O)O)CC(=O)O)c1 [stil-2],Kd,"[5]; 100 mM KCl, 37° C., pH 7.08, cis-trans mixture as saponified",0.224 µM
"Cc1ccc(N(CC(=O)O)CC(=O)O)c(OCCOc2cc3cc(-c4ncc(C(=O)O)o4)oc3cc2N(CC(=O)O)CC(=O)O)c1 [fura-2, 1-(2-(5'-carboxyoxazol-2'-yl)-6-aminobenzofuran-5-oxy)-2-(2'-amino-5'-methylphenoxy)ethane-N,N,N',N'-tetraacetic acid]",Mn^2+:Ca^2+ preference,[7],42 fold
same,Fe^2+ binding strength relative to Ca^2+,[8],between three and ten time
same,Zn^2+:Ca^2+ preference,[6],two orders of magnitude
same,pKZn,[6],8.6-8.8
same,Kd,[6],0.0016 to 0.002 µM
same,Kd,[9]; 20°,~9800 µM
same,Kd,[9]; 37° C.,~5600 µM
